Test results: patent publication US20120060243A1, “Herbicide-Resistant AHAS-Mutants and Methods of Use” (priority 2008, published 2012)
Where two headings read alike, the source gives them in different places.

What was measured:
Format in all cases: in vivo, Brassica napus
BN02 (wild-type) = assay: Foliar spray response of whole plants, FIG. 2; settings: 210 g ai/ha + 0.5% v/v Merge, 3-4 leaf stage, three weeks after treatment, line BN02
Protocol: (§1) In addition, B. napus plants (3-4 leaf stage) containing the double mutant were analyzed for response to treatment with imazamox compared to wild type plants. Lines BN02 (wild-type) and BnCL131A1 (AHAS III A122T:S653N, double mutant) were treated with either 210 g ai/ha imazamox supplemented with 0.5% v/v Merge by foliar spray or left unsprayed as checks. FIG. 2 provides the results for plants BN02 (top row) and BnCL131A1 (bottom row).

[1] = system: BnCL131A1 (AHAS III A122T:S653N, double mutant); assay: Foliar spray response of whole plants, FIG. 2; settings: 210 g ai/ha + 0.5% v/v Merge, 3-4 leaf stage, three weeks after treatment, line BnCL131A1
Protocol: as §1

[2] = system: AHASL1A-A122T, A122T (Ho); settings: 18 Days After Treatment, line AHASL1A-A122T; for Mean Percent Crop Phytotoxicity (% Crop Injury): field, 2-4 leaf stage
Excerpt: (§2) Hand-crossed hybrids were produced in the greenhouse between two IMI-tolerant spring Brassica napus parental lines: “BnCL131A1” (homozygous for the A genome IMI-tolerant mutation AHASL1A-A122(At)T-S653(At)N) and “PM1PM2” (homozygous for the A genome AHAS-inhibitor tolerant mutation AHASL1A-W574(At)L (PM2) plus the C genome AHAS-inhibitor tolerant mutation AHASL1C-S653(At)N(PM1)). The resulting heterozygous hand-crossed hybrid line, “PM1PM2/BnCL131A 1” (heterozygous for the stacked mutations: AHASL1A-A122(At)T-S653(At)N, AHASL1A-W574(At)L (PM2), AHASL1C-S653(At)N(PM1)) was field tested together with lines each containing only one AHAS-inhibitor tolerant mutation (homozygous or heterozygous) and several spring Brassica napus checks.
(§3) The three repetition trial was conducted in Simcoe, N. Dak., and used a randomized split block design. The trial was designed to measure the percent phytotoxicity (% crop injury) of the different entries under 5 different imidazolinone herbicide treatment rates. Plants were sprayed at the 2-4 leaf stage at a volume of 100 liters/ha. The imidazolinone herbicide rates used were as follows (Imazamox=BEYOND™ 120 g/I LC (BAS 72001H); NIS=INDUCE™ 90 (90% non-ionic surfactant; Helena Chemical Co., Collierville, Tenn.):
(§4) Crop Injury Ratings were determined in the field by assessing each plot in the trial for the level of phytotoxicity (percent crop injury) on a scale from 0-100% at 18 days after treatment. Mean values for each entry across the three replications along with their statistical significance (ANOVA) are presented in Table 6 (Ho=homozygous; He=heterozygous). Each value presented in Table 6 is the mean of three replications.
(§5) The percent phytotoxicity (% crop injury) ratings were transposed into Herbicide Tolerance ratings by subtracting the percent crop injury rating (Table 6) for each line from 100% to obtain the percent herbicide tolerance (Table 7) (Ho=homozygous; He=heterozygous).

[3] = system: BnCL131A1 (He), A122T-S653N (He); settings: 18 Days After Treatment, line BnCL131A1 (He); for Mean Percent Crop Phytotoxicity (% Crop Injury): field, 2-4 leaf stage
Excerpt: as §2, §3, §4, §5

Bn WT 1 = assay: Field trial crop phytotoxicity, Simcoe; settings: 18 Days After Treatment, line Bn WT 1; for Mean Percent Crop Phytotoxicity (% Crop Injury): field, 2-4 leaf stage
Excerpt: as §2, §3, §4, §5

Bn WT 2 = assay: Field trial crop phytotoxicity, Simcoe; settings: 18 Days After Treatment, line Bn WT 2; for Mean Percent Crop Phytotoxicity (% Crop Injury): field, 2-4 leaf stage
Excerpt: as §2, §3, §4, §5

[4] = system: PM1 (AHASL1C-PM1), S653N (Ho); assay: Field trial crop phytotoxicity, Simcoe; settings: 18 Days After Treatment, line PM1 (AHASL1C-PM1); for Mean Percent Crop Phytotoxicity (% Crop Injury): field, 2-4 leaf stage
Excerpt: as §2, §3, §4, §5

[5] = mean over 0, 35, 70, 140, 210 g ai/ha (N 15)

Question: Which “response to treatment with imazamox (tolerance)” value (BN02 (wild-type)) does the source give for `COCc1cnc(C2=NC(C)(C(C)C)C(=O)N2)c(C(=O)O)c1` (stereo not drawn) [imazamox] here?
Answer: The value was “nearly non-tolerant”.

Question: What about the “response to treatment with imazamox (tolerance)” value [1] of the same compound?
Answer: The value was “almost completely tolerant”.

Question: And the “Mean Percent Crop Phytotoxicity (% Crop Injury)” value ([2]; 35 g ai/ha + 0.25% (v/v) NIS)?
Answer: Its value is 70%.

Question: And the “Mean Percent Herbicide Tolerance (100% minus percent crop injury)” value ([2]; 35 g ai/ha)?
Answer: The value was 30.0%.

Question: What about the “Mean Percent Crop Phytotoxicity (% Crop Injury)” value ([2]; 70 g ai/ha + 0.25% (v/v) NIS) of the same compound?
Answer: The value was 78.33%.

Question: And the “Mean Percent Herbicide Tolerance (100% minus percent crop injury)” value ([2]; 70 g ai/ha)?
Answer: Its value is 21.7%.

Question: What about the “Mean Percent Crop Phytotoxicity (% Crop Injury)” value ([2]; 210 g ai/ha + 0.25% (v/v) NIS) of the same compound?
Answer: The value was 70%.

Question: And the “Mean Percent Herbicide Tolerance (100% minus percent crop injury)” value ([2]; 210 g ai/ha)?
Answer: Its value is 30.0%.

Question: What about the “Mean Percent Crop Phytotoxicity (% Crop Injury), Mean over rates” value [2, 5] of the same compound?
Answer: Its value is 57%.

Question: And the “Mean Percent Crop Phytotoxicity (% Crop Injury)” value ([3]; 35 g ai/ha + 0.25% (v/v) NIS)?
Answer: The value was 33.33%.

Question: And the “Mean Percent Herbicide Tolerance (100% minus percent crop injury)” value ([3]; 35 g ai/ha)?
Answer: The value was 66.7%.

Question: What about the “Mean Percent Crop Phytotoxicity (% Crop Injury)” value ([3]; 70 g ai/ha + 0.25% (v/v) NIS) of the same compound?
Answer: Its value is 60%.

Question: And the “Mean Percent Herbicide Tolerance (100% minus percent crop injury)” value ([3]; 70 g ai/ha)?
Answer: The value was 40.0%.

Question: And the “Mean Percent Crop Phytotoxicity (% Crop Injury)” value ([3]; 140 g ai/ha + 0.25% (v/v) NIS)?
Answer: Its value is 80%.

Question: What about the “Mean Percent Herbicide Tolerance (100% minus percent crop injury)” value ([3]; 140 g ai/ha) of the same compound?
Answer: The value was 20.0%.

Question: What about the “Mean Percent Crop Phytotoxicity (% Crop Injury)” value ([3]; 210 g ai/ha + 0.25% (v/v) NIS) of the same compound?
Answer: Its value is 73.33%.

Question: And the “Mean Percent Herbicide Tolerance (100% minus percent crop injury)” value ([3]; 210 g ai/ha)?
Answer: Its value is 26.7%.

Question: What about the “Mean Percent Crop Phytotoxicity (% Crop Injury), Mean over rates” value [3, 5] of the same compound?
Answer: The value was 49.33%.

Question: What about the “Mean Percent Crop Phytotoxicity (% Crop Injury)” value (Bn WT 1; 35 g ai/ha + 0.25% (v/v) NIS) of the same compound?
Answer: Its value is 85%.

Question: What about the “Mean Percent Herbicide Tolerance (100% minus percent crop injury)” value (Bn WT 1; 35 g ai/ha) of the same compound?
Answer: The value was 15.0%.

Question: And the “Mean Percent Crop Phytotoxicity (% Crop Injury)” value (Bn WT 1; 70 g ai/ha + 0.25% (v/v) NIS)?
Answer: Its value is 96.67%.

Question: What about the “Mean Percent Herbicide Tolerance (100% minus percent crop injury)” value (Bn WT 1; 70 g ai/ha) of the same compound?
Answer: The value was 3.3%.

Question: What about the “Mean Percent Crop Phytotoxicity (% Crop Injury)” value (Bn WT 1; 140 g ai/ha + 0.25% (v/v) NIS) of the same compound?
Answer: The value was 100%.

Question: What about the “Mean Percent Herbicide Tolerance (100% minus percent crop injury)” value (Bn WT 1; 140 g ai/ha) of the same compound?
Answer: Its value is 0.0%.

Question: What about the “Mean Percent Crop Phytotoxicity (% Crop Injury)” value (Bn WT 1; 210 g ai/ha + 0.25% (v/v) NIS) of the same compound?
Answer: The value was 98.33%.

Question: And the “Mean Percent Herbicide Tolerance (100% minus percent crop injury)” value (Bn WT 1; 210 g ai/ha)?
Answer: Its value is 1.7%.

Question: What about the “Mean Percent Crop Phytotoxicity (% Crop Injury), Mean over rates” value (Bn WT 1; [5]) of the same compound?
Answer: The value was 76%.

Question: What about the “Mean Percent Crop Phytotoxicity (% Crop Injury)” value (Bn WT 2; 35 g ai/ha + 0.25% (v/v) NIS) of the same compound?
Answer: The value was 95%.

Question: What about the “Mean Percent Herbicide Tolerance (100% minus percent crop injury)” value (Bn WT 2; 35 g ai/ha) of the same compound?
Answer: Its value is 5.0%.

Question: What about the “Mean Percent Crop Phytotoxicity (% Crop Injury)” value (Bn WT 2; 70 g ai/ha + 0.25% (v/v) NIS) of the same compound?
Answer: Its value is 100%.

Question: What about the “Mean Percent Herbicide Tolerance (100% minus percent crop injury)” value (Bn WT 2; 70 g ai/ha) of the same compound?
Answer: Its value is 0.0%.

Question: And the “Mean Percent Crop Phytotoxicity (% Crop Injury)” value (Bn WT 2; 140 g ai/ha + 0.25% (v/v) NIS)?
Answer: Its value is 100%.

Question: What about the “Mean Percent Herbicide Tolerance (100% minus percent crop injury)” value (Bn WT 2; 140 g ai/ha) of the same compound?
Answer: Its value is 0.0%.

Question: And the “Mean Percent Crop Phytotoxicity (% Crop Injury)” value (Bn WT 2; 210 g ai/ha + 0.25% (v/v) NIS)?
Answer: Its value is 100%.

Question: What about the “Mean Percent Herbicide Tolerance (100% minus percent crop injury)” value (Bn WT 2; 210 g ai/ha) of the same compound?
Answer: Its value is 0.0%.

Question: And the “Mean Percent Crop Phytotoxicity (% Crop Injury), Mean over rates” value (Bn WT 2; [5])?
Answer: The value was 79%.

Question: And the “Mean Percent Crop Phytotoxicity (% Crop Injury)” value ([4]; 35 g ai/ha + 0.25% (v/v) NIS)?
Answer: Its value is 66.67%.

Question: And the “Mean Percent Herbicide Tolerance (100% minus percent crop injury)” value ([4]; 35 g ai/ha)?
Answer: Its value is 33.3%.

Question: And the “Mean Percent Crop Phytotoxicity (% Crop Injury)” value ([4]; 70 g ai/ha + 0.25% (v/v) NIS)?
Answer: Its value is 86.67%.

Question: What about the “Mean Percent Herbicide Tolerance (100% minus percent crop injury)” value ([4]; 70 g ai/ha) of the same compound?
Answer: Its value is 13.3%.

Question: And the “Mean Percent Crop Phytotoxicity (% Crop Injury)” value ([4]; 140 g ai/ha + 0.25% (v/v) NIS)?
Answer: The value was 91.67%.

Question: And the “Mean Percent Herbicide Tolerance (100% minus percent crop injury)” value ([4]; 140 g ai/ha)?
Answer: The value was 8.3%.

Question: And the “Mean Percent Crop Phytotoxicity (% Crop Injury)” value ([4]; 210 g ai/ha + 0.25% (v/v) NIS)?
Answer: The value was 91.67%.

Question: What about the “Mean Percent Herbicide Tolerance (100% minus percent crop injury)” value ([4]; 210 g ai/ha) of the same compound?
Answer: The value was 8.3%.

Question: What about the “Mean Percent Crop Phytotoxicity (% Crop Injury), Mean over rates” value [4, 5] of the same compound?
Answer: Its value is 67.33%.
